Measured values as given in PMC12735872, “Development of ^18F/^11C-Labeled Pyrrolo-Pyridine/Pyrimidine LRRK2 Selective PET Radioligands” (Pharmaceuticals, 2025).
Read-outs that look alike come from different tables or passages of the source. Blank lines part the entries; values can stand above or below the compound they belong to.

Assays:
cynomolgus monkey brain = assay: In vivo PET imaging in cynomolgus monkeys; design: VT/fp: unit not given beside the values; VT: unit not given here
From the text: PET measurements were led using a high-resolution research tomograph (HRRT) from Siemens Molecular Imaging (Knoxville, TN, USA). List mode data were reconstructed using the ordinary Poisson-3D-ordered subset expectation maximization (OP-3D-OSEM) algorithm, with 10 repetitions and 16 subsets while modeling the point spread function (PSF). The in-plane resolution accomplished with OP-3D-OSEM and PSF was 1.5 mm full width at half maximum (FWHM) at the center of the field of view (FOV) and 2.4 mm at 10 cm off-center.
The study was approved by the Animal Ethics Committee of the Swedish Animal Welfare Agency and was performed according to “Guidelines for planning, conducting and documenting experimental research” (Dnr 5.2.18-4170/14 issued on 11 April 2014) of the KI as well as the “Guide for the Care and Use of Laboratory Animals” [26]. NHPs were supplied by the Astrid Fagraeus Laboratory (AFL) of the Swedish Institute for Infectious Disease Control (SMI), Solna, Sweden. Anesthesia was brought by intramuscular injection of ketamine hydrochloride (approximately 10 mg/kg) at AFL and continued with a mixture of sevoflurane (0–8.0%), oxygen, and medical air through endotracheal intubation at the KI PET center. The NHP head was immobilized using a homemade fixation device. Body temperature was maintained with a Bair Hugger model 505 (Arizant Healthcare, Eden Prairie, MN, USA) and monitored via an esophageal thermometer. ECG, heart rate, respiratory rate, blood pressure, and oxygen saturation were continuously examined throughout the experiments. The fluid balance was retained with continuous infusion of saline.
A 6 min transmission scan was performed before the injection of the radioligand using a single Cs-137 source. List mode data was acquired continuously for 93 min following intravenous administration of the radioligand. Images were reconstructed into 38 frames with varying intervals: […].
For all PET measurements, radioligands were administered via intravenous injection. Regions of interest (ROIs) were manually delineated on MRI images for each NHP, for the whole brain, cerebellum, caudate, putamen, thalamus, frontal cortex, temporal cortex, amygdala, posterior cingulate cortex, anterior cingulate cortex, hippocampus, occipital cortex, parietal cortex, ventral striatum, and insula. The summed PET images over the entire duration were co-registered with the individual NHP’s MRI image. After applying the co-registration parameters to the dynamic PET data, time–activity curves were generated for each brain region for every PET measurement. The standardized uptake value (SUV) was calculated for each brain region. The total distribution volume (VT) for all three radioligands were derived using one-tissue compartment (1-TC) and two-tissue compartment (2-TC) models.
On two separate occasions, PET measurements were performed after intravenous administration of GEN-7915 or PFE-360 with a slow infusion in one NHP (NHP2). The infusion lasted for 2 min, starting 30 min before PET scanning. The pretreatment formulations were prepared by dissolving it in DMSO (5%), Kolliphor EL (15%), and PBS (80%), and the pH of the final formulation was approximately 4.5–5.0. An automated blood sampling system (ABSS) measured continuous radioactivity for the first 3 min following the radioligand injection, while manual blood samples were taken at 4, 15, 30, 60, and 90 min post-injection to measure the radioactivity and metabolism.

[1] = Plasma protein binding by ultrafiltration; assay type: in vitro ADME, non-human primate (NHP); details: cynomolgus monkey, pH 7.4, NHP plasma, baseline
Experimental: The plasma protein binding of all three radioligands was determined in duplicate at the baseline condition according to a previously published method. For each blood plasma sample, 500 μL of non-human primate (NHP) blood plasma was used with 50 μL PBS (pH 7.4 containing KCl 0.2 mg, KH2PO4 0.2 mg, Na2HPO4 1.42 mg, and NaCl 8 mg per mL). The mixture included around 20 MBq of the corresponding radioligand in PBS. Samples underwent incubation at room temperature for 10 min. A small aliquot (20 µL) was taken from each mixture, and radioactivity measurements were performed using a well counter. From each mixture, 200 µL was placed into ultrafiltration tubes (Millipore Centrifree YM-30) and centrifuged at 3000 rpm for 15 minutes. The remaining filtrates were analyzed and aliquots (20 µL) were counted in the well counter described earlier. Protein-bound fractions were calculated as follows:(1) C⥂pla (filtrate) /Cpla (total) ÷CPBS (filtrate) /CPBS (total) ×100(%)
Cpla (total) represents the radioactivity concentration of incubation mixture in plasma and CPBS (total) represents the radioactivity concentration of incubation mixture in PBS. Cpla (filtrate) and CPBS (filtrate) are the radioactivity concentrations from filtrate samples.

[2] = ACC, 1-TC model, pretreatment GEN-7915 (40 mg/kg)
[3] = ACC, 1-TC model, pretreatment PFE-360 (0.5 mg/kg)
[4] = ACC, 2-TC model, pretreatment GEN-7915 (40 mg/kg)
[5] = ACC, 2-TC model, pretreatment PFE-360 (0.5 mg/kg)
[6] = AMY, 1-TC model, pretreatment GEN-7915 (40 mg/kg)
[7] = AMY, 1-TC model, pretreatment PFE-360 (0.5 mg/kg)
[8] = AMY, 2-TC model, pretreatment GEN-7915 (40 mg/kg)
[9] = AMY, 2-TC model, pretreatment PFE-360 (0.5 mg/kg)
[10] = CAU, 1-TC model, pretreatment GEN-7915 (40 mg/kg)
[11] = CAU, 1-TC model, pretreatment PFE-360 (0.5 mg/kg)
[12] = CAU, 2-TC model, pretreatment GEN-7915 (40 mg/kg)
[13] = CAU, 2-TC model, pretreatment PFE-360 (0.5 mg/kg)
[14] = CB, 1-TC model, pretreatment GEN-7915 (40 mg/kg)
[15] = CB, 1-TC model, pretreatment PFE-360 (0.5 mg/kg)
[16] = CB, 2-TC model, pretreatment GEN-7915 (40 mg/kg)
[17] = CB, 2-TC model, pretreatment PFE-360 (0.5 mg/kg)
[18] = FC, 1-TC model, pretreatment GEN-7915 (40 mg/kg)
[19] = FC, 1-TC model, pretreatment PFE-360 (0.5 mg/kg)
[20] = FC, 2-TC model, pretreatment GEN-7915 (40 mg/kg)
[21] = FC, 2-TC model, pretreatment PFE-360 (0.5 mg/kg)
[22] = PUT, 1-TC model, pretreatment GEN-7915 (40 mg/kg)
[23] = PUT, 1-TC model, pretreatment PFE-360 (0.5 mg/kg)
[24] = PUT, 2-TC model, pretreatment GEN-7915 (40 mg/kg)
[25] = PUT, 2-TC model, pretreatment PFE-360 (0.5 mg/kg)
[26] = THA, 1-TC model, pretreatment GEN-7915 (40 mg/kg)
[27] = THA, 1-TC model, pretreatment PFE-360 (0.5 mg/kg)
[28] = THA, 2-TC model, pretreatment GEN-7915 (40 mg/kg)
[29] = THA, 2-TC model, pretreatment PFE-360 (0.5 mg/kg)
[30] = read-out: Free fraction in plasma (fP)
[31] = read-out: Plasma protein binding (converted)

- VT (cynomolgus monkey brain; ACC, 1-TC model, Baseline): 6.03
- VT/fp (cynomolgus monkey brain; ACC, 1-TC model, Baseline): 17.7
- VT (cynomolgus monkey brain; [2]): 8.50
- VT/fp (cynomolgus monkey brain; [2]): 20.9
- VT (cynomolgus monkey brain; [3]): 9.28
- VT/fp (cynomolgus monkey brain; [3]): 20.2
- VT (cynomolgus monkey brain; ACC, 2-TC model, Baseline): 6.04
- VT (cynomolgus monkey brain; [4]): 8.71
- VT/fp (cynomolgus monkey brain; [4]): 21.4
- VT (cynomolgus monkey brain; [5]): 9.39
- VT/fp (cynomolgus monkey brain; [5]): 20.4
- VT (cynomolgus monkey brain; AMY, 1-TC model, Baseline): 6.15
- VT/fp (cynomolgus monkey brain; AMY, 1-TC model, Baseline): 18.1
- VT (cynomolgus monkey brain; [6]): 7.29
- VT/fp (cynomolgus monkey brain; [6]): 17.9
- VT (cynomolgus monkey brain; [7]): 7.56
- VT/fp (cynomolgus monkey brain; [7]): 16.4
- VT (cynomolgus monkey brain; AMY, 2-TC model, Baseline): 6.23
- VT/fp (cynomolgus monkey brain; AMY, 2-TC model, Baseline): 18.3
- VT (cynomolgus monkey brain; [8]): 7.36
- VT/fp (cynomolgus monkey brain; [8]): 18.1
- VT (cynomolgus monkey brain; [9]): 7.78
- VT/fp (cynomolgus monkey brain; [9]): 16.9
- VT (cynomolgus monkey brain; CAU, 1-TC model, Baseline): 5.83
- VT/fp (cynomolgus monkey brain; CAU, 1-TC model, Baseline): 17.2
- VT (cynomolgus monkey brain; [10]): 7.78
- VT/fp (cynomolgus monkey brain; [10]): 19.1
- VT (cynomolgus monkey brain; [11]): 8.50
- VT/fp (cynomolgus monkey brain; [11]): 18.5
- VT (cynomolgus monkey brain; CAU, 2-TC model, Baseline): 5.87
- VT/fp (cynomolgus monkey brain; CAU, 2-TC model, Baseline): 17.3
- VT (cynomolgus monkey brain; [12]): 7.89
- VT/fp (cynomolgus monkey brain; [12]): 19.4
- VT (cynomolgus monkey brain; [13]): 8.50
- VT/fp (cynomolgus monkey brain; [13]): 18.5
- VT (cynomolgus monkey brain; CB, 1-TC model, Baseline): 4.13
- VT/fp (cynomolgus monkey brain; CB, 1-TC model, Baseline): 12.2
- VT (cynomolgus monkey brain; [14]): 5.03
- VT/fp (cynomolgus monkey brain; [14]): 12.3
- VT (cynomolgus monkey brain; [15]): 5.67
- VT/fp (cynomolgus monkey brain; [15]): 12.3
- VT (cynomolgus monkey brain; CB, 2-TC model, Baseline): 4.41
- VT/fp (cynomolgus monkey brain; CB, 2-TC model, Baseline): 13.0
- VT (cynomolgus monkey brain; [16]): 5.08
- VT/fp (cynomolgus monkey brain; [16]): 12.5
- VT (cynomolgus monkey brain; [17]): 5.69
- VT/fp (cynomolgus monkey brain; [17]): 12.4
- VT (cynomolgus monkey brain; FC, 1-TC model, Baseline): 5.26
- VT/fp (cynomolgus monkey brain; FC, 1-TC model, Baseline): 15.5
- VT (cynomolgus monkey brain; [18]): 6.53
- VT/fp (cynomolgus monkey brain; [18]): 16.0
- VT (cynomolgus monkey brain; [19]): 7.68
- VT/fp (cynomolgus monkey brain; [19]): 16.7
- VT (cynomolgus monkey brain; FC, 2-TC model, Baseline): 5.26
- VT/fp (cynomolgus monkey brain; FC, 2-TC model, Baseline): 15.5
- VT (cynomolgus monkey brain; [20]): 6.74
- VT/fp (cynomolgus monkey brain; [20]): 16.5
- VT (cynomolgus monkey brain; [21]): 7.72
- VT/fp (cynomolgus monkey brain; [21]): 16.8
- Brain uptake (cynomolgus monkey brain; PET, iv, baseline): > 3 %ID
- Brain washout (cynomolgus monkey brain; PET, iv, baseline): rapid washout
- Regional distribution of brain uptake (cynomolgus monkey brain; PET, iv, baseline): regional differences in uptake
- VT (cynomolgus monkey brain; PUT, 1-TC model, Baseline): 5.71
- VT/fp (cynomolgus monkey brain; PUT, 1-TC model, Baseline): 16.8
- VT (cynomolgus monkey brain; [22]): 7.56
- VT/fp (cynomolgus monkey brain; [22]): 18.6
- VT (cynomolgus monkey brain; [23]): 8.25
- VT/fp (cynomolgus monkey brain; [23]): 17.9
- VT (cynomolgus monkey brain; PUT, 2-TC model, Baseline): 5.89
- VT/fp (cynomolgus monkey brain; PUT, 2-TC model, Baseline): 17.3
- VT (cynomolgus monkey brain; [24]): 7.71
- VT/fp (cynomolgus monkey brain; [24]): 18.9
- VT (cynomolgus monkey brain; [25]): 8.25
- VT/fp (cynomolgus monkey brain; [25]): 17.9
- VT (cynomolgus monkey brain; THA, 1-TC model, Baseline): 4.80
- VT/fp (cynomolgus monkey brain; THA, 1-TC model, Baseline): 14.1
- VT (cynomolgus monkey brain; [26]): 6.05
- VT/fp (cynomolgus monkey brain; [26]): 14.9
- VT (cynomolgus monkey brain; [27]): 6.68
- VT/fp (cynomolgus monkey brain; [27]): 14.5
- VT (cynomolgus monkey brain; THA, 2-TC model, Baseline): 4.95
- VT/fp (cynomolgus monkey brain; THA, 2-TC model, Baseline): 14.6
- VT (cynomolgus monkey brain; [28]): 6.18
- VT/fp (cynomolgus monkey brain; [28]): 15.2
- VT (cynomolgus monkey brain; [29]): 6.68
- VT/fp (cynomolgus monkey brain; [29]): 14.5
- fraction unbound at 10 min [1, 30]: ~0.45
- fraction unbound at 10 min [1, 31]: ~0.45
Structure (SMILES): C[C@@H]1C[C@@H]([18F])CN1c1c(C#N)c2c(N)nccc2n1C [[^18F]1, 4-Amino-2-((2R,4R)-4-[^18F]fluoro-2-methylpyrrolidin-1-yl)-1-methyl-1H-pyrrolo[3,2-c]pyridine-3-carbonitrile]

- Brain uptake at peak (cynomolgus monkey brain; PET, iv, baseline): 3.8–4.4 %ID
- Brain washout (cynomolgus monkey brain; PET, iv, baseline): fast washout
- Time to reach half the peak brain level (cynomolgus monkey brain; PET, iv, baseline): ≤ 20 min
- fraction unbound at 10 min [1, 30]: ~0.6
- fraction unbound at 10 min [1, 31]: ~0.6
Structure (SMILES): C[C@@H]1C[C@@H]([18F])CN1c1c(C#N)c2c(N)ncnc2n1C [[^18F]2, 4-Amino-6-((2R,4R)-4-[^18F]fluoro-2-methyl Pyrrolidin-1-yl)-7-methyl-7H-pyrrolo[2,3-d]pyrimidine-5-carbonitrile]
- Regional distribution of brain uptake (cynomolgus monkey brain; PET, iv, baseline): relatively uniform distribution across all the brain regions
